# Active and inactive are the calls of the source. The calls are words filed in the database; no cut-off is given here.
# Key:
# U-937 [1] = assay: Antiinflammatory activity in human U937 cells assessed as inhibition of LPS-induced IL-8 production at 20 uM preincubated for 2 hrs followed by LPS stimulation and measured after 24 hrs post LPS challenge by ELISA; assay type: functional, cell-based
# U-937 [2] = assay: Antiinflammatory activity in human U937 cells assessed as inhibition of Escherichia coli LPS-induced TNFalpha secretion at 10 to 80 uM preincubated for 2 hrs followed by LPS stimulation and measured after 24 hrs post LPS challenge by ELISA; assay type: functional, cell-based
# U-937 [3] = assay: Antiinflammatory activity in PMA-differentiated human U937 cells assessed as inhibition of LPS-induced TNFalpha secretion at 80 uM preincubated for 2 hrs followed by LPS stimulation and measured after 24 hrs post LPS challenge by ELISA relative to control; assay type: functional
# [4] = Cytotoxicity against PMA-differentiated human U937 macrophages assessed as cell viability at 80 uM after 24 hrs by MTT assay relative to untreated control; assay type: cell-based, U-937; conditions: read-out: Activity
# U-937 [5] = assay: Antiinflammatory activity in human U937 cells assessed as inhibition of Escherichia coli LPS-induced IL-1beta secretion at 10 to 80 uM preincubated for 2 hrs followed by LPS stimulation and measured after 24 hrs post LPS challenge by ELISA; assay type: functional, cell-based
# U-937 [6] = assay: Antiinflammatory activity in PMA-differentiated human U937 cells assessed as inhibition of LPS-induced TNFalpha secretion at 20 uM preincubated for 2 hrs followed by LPS stimulation and measured after 24 hrs post LPS challenge by ELISA relative to control; assay type: functional
# [7] = molecular target: Toll-like receptor 4 (Homo sapiens) (UniProt O00206); assay: Inhibition of TLR4 in human U937-3xkappaB-LUC cells assessed as inhibition of Aggregatibacter actinomycetemcomitans LPS-induced NF-kappaB activation preincubated for 30 mins followed by LPS stimulation and measured after 6 hrs post LPS challenge by Bright-Glo luciferase reporter gene assay relative to control
# U-937 [8] = assay: Antiinflammatory activity in human U937 cells assessed as inhibition of LPS-induced IL-8 production at 10 to 20 uM preincubated for 2 hrs followed by LPS stimulation and measured after 24 hrs post LPS challenge by ELISA; assay type: functional, cell-based
# U-937 [9] = assay: Antiinflammatory activity in human U937 cells assessed as inhibition Aggregatibacter actinomycetemcomitans LPS-induced IL-1beta secretion at 10 to 80 uM preincubated for 2 hrs followed by LPS stimulation and measured after 24 hrs post LPS challenge by ELISA; assay type: functional, cell-based
# U-937 [10] = assay: Antiinflammatory activity in PMA-differentiated human U937 cells assessed as inhibition of LPS-induced TNFalpha secretion at 40 uM preincubated for 2 hrs followed by LPS stimulation and measured after 24 hrs post LPS challenge by ELISA relative to control; assay type: functional
# [11] = Cytotoxicity against PMA-differentiated human U937 macrophages assessed as cell viability at 20 uM after 24 hrs by MTT assay relative to untreated control; assay type: cell-based, U-937; conditions: read-out: Activity
# U-937 [12] = assay: Antiinflammatory activity in human U937 cells assessed as inhibition Aggregatibacter actinomycetemcomitans LPS-induced TNFalpha secretion at 10 to 80 uM preincubated for 2 hrs followed by LPS stimulation and measured after 24 hrs post LPS challenge by ELISA; assay type: functional, cell-based
# U-937 [13] = assay: Antiinflammatory activity in PMA-differentiated human U937 cells assessed as inhibition of LPS-induced TNFalpha secretion at 10 uM preincubated for 2 hrs followed by LPS stimulation and measured after 24 hrs post LPS challenge by ELISA relative to control; assay type: functional
# U-937 [14] = assay: Antiinflammatory activity in human U937 cells assessed as inhibition of LPS-induced IL-1beta production preincubated for 2 hrs followed by LPS stimulation and measured after 24 hrs post LPS challenge by ELISA; assay type: functional, cell-based
# [15] = molecular target: T1, Peroxisome proliferator-activated receptor gamma (Homo sapiens) (UniProt P37231); assay: Binding affinity to recombinant human PPARgamma LBD at 40 uM by TR-FRET based green polar-screen PPAR competitor assay
# T1 sequence (whole entry): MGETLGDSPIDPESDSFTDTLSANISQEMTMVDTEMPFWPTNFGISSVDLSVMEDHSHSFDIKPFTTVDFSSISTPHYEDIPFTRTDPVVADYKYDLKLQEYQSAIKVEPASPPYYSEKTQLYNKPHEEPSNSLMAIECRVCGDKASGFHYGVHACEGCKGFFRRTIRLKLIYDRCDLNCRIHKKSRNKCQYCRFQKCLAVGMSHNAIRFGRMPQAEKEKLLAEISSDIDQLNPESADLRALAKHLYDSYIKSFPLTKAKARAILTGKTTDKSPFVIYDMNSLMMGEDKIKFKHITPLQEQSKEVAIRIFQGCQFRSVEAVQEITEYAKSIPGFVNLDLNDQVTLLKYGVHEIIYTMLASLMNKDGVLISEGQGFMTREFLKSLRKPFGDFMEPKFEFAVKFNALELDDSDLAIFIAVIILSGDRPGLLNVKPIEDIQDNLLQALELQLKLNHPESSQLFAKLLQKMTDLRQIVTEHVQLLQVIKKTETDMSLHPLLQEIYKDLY
# [16] = molecular target: Toll-like receptor 4 (Homo sapiens) (UniProt O00206); assay: Inhibition of TLR4 in human U937-3xkappaB-LUC cells assessed as inhibition of Aggregatibacter actinomycetemcomitans LPS-induced NF-kappaB activation at 10 uM preincubated for 30 mins followed by LPS stimulation and measured after 6 hrs post LPS challenge by Bright-Glo luciferase reporter gene assay relative to control
# [17] = molecular target: Toll-like receptor 4 (Homo sapiens) (UniProt O00206); assay: Inhibition of TLR4 in human U937-3xkappaB-LUC cells assessed as inhibition of Aggregatibacter actinomycetemcomitans LPS-induced NF-kappaB activation at 5 to 50 uM preincubated for 30 mins followed by LPS stimulation and measured after 6 hrs post LPS challenge by Bright-Glo luciferase reporter gene assay relative to control
# [18] = Cytotoxicity against PMA-differentiated human U937 macrophages assessed as cell viability at 10 uM after 24 hrs by MTT assay relative to untreated control; assay type: cell-based, U-937; conditions: read-out: Activity
# U-937 [19] = assay: Antiinflammatory activity in human U937 cells assessed as inhibition of LPS-induced IL-6 production at 40 to 80 uM preincubated for 2 hrs followed by LPS stimulation and measured after 24 hrs post LPS challenge by ELISA; assay type: functional, cell-based
# [20] = molecular target: Toll-like receptor 4 (Homo sapiens) (UniProt O00206); assay: Inhibition of TLR4 in human U937-3xkappaB-LUC cells assessed as inhibition of Aggregatibacter actinomycetemcomitans LPS-induced NF-kappaB activation at 50 uM preincubated for 30 mins followed by LPS stimulation and measured after 6 hrs post LPS challenge by Bright-Glo luciferase reporter gene assay relative to control
# [21] = molecular target: Toll-like receptor 4 (Homo sapiens) (UniProt O00206); assay: Inhibition of TLR4 in human U937-3xkappaB-LUC cells assessed as inhibition of Escherichia coli LPS-induced NF-kappaB activation at 5 to 50 uM preincubated for 30 mins followed by LPS stimulation and measured after 6 hrs post LPS challenge by Bright-Glo luciferase reporter gene assay relative to control
# [22] = Cytotoxicity against PMA-differentiated human U937 macrophages assessed as cell viability at 40 uM after 24 hrs by MTT assay relative to untreated control; assay type: cell-based, U-937; conditions: read-out: Activity
# U-937 [23] = assay: Antiinflammatory activity in human U937 cells assessed as inhibition of LPS-induced IL-8 production at 40 to 80 uM preincubated for 2 hrs followed by LPS stimulation and measured after 24 hrs post LPS challenge by ELISA; assay type: functional, cell-based
# [24] = molecular target: Toll-like receptor 4 (Homo sapiens) (UniProt O00206); assay: Inhibition of TLR4 in human U937-3xkappaB-LUC cells assessed as inhibition of Aggregatibacter actinomycetemcomitans LPS-induced NF-kappaB activation at 20 uM preincubated for 30 mins followed by LPS stimulation and measured after 6 hrs post LPS challenge by Bright-Glo luciferase reporter gene assay relative to control
# [25] = molecular target: Toll-like receptor 4 (Homo sapiens) (UniProt O00206); assay: Inhibition of TLR4 in human U937-3xkappaB-LUC cells assessed as inhibition of Aggregatibacter actinomycetemcomitans LPS-induced NF-kappaB activation at 5 uM preincubated for 30 mins followed by LPS stimulation and measured after 6 hrs post LPS challenge by Bright-Glo luciferase reporter gene assay relative to control
# U-937 [26] = assay: Antiinflammatory activity in human U937 cells assessed as inhibition of LPS-induced IL-8 production preincubated for 2 hrs followed by LPS stimulation and measured after 24 hrs post LPS challenge by ELISA; assay type: functional
# Chain of Toll-like receptor 4 (Homo sapiens) (O00206 whole entry): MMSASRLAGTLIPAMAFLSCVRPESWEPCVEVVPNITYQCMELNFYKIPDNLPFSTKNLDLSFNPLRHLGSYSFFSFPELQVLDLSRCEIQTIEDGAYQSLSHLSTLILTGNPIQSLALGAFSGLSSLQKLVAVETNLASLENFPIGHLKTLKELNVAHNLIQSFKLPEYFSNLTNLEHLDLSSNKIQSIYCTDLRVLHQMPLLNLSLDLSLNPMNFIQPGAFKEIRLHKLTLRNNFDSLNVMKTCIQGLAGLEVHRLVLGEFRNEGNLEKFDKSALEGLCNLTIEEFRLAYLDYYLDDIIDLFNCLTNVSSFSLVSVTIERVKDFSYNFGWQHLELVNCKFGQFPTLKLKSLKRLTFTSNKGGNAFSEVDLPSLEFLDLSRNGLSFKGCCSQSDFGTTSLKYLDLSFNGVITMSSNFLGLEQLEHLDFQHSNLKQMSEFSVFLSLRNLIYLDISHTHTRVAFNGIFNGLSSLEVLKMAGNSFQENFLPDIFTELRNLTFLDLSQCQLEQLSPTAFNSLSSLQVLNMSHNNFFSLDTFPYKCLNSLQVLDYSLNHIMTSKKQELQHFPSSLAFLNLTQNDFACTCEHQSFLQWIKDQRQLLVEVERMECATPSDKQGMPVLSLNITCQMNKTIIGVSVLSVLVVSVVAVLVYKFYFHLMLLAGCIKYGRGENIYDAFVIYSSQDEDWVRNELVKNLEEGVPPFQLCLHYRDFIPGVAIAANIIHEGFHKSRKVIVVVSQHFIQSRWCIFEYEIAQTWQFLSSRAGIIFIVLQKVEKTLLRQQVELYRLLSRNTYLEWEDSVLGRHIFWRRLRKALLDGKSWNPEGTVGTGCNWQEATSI
Structure (SMILES),inhibition at 80 µM (U-937 [3]) [%],"viability at 24 h, 80 µM [4] [%]",inhibition at 20 µM (U-937 [6]) [%],inhibition at 40 µM (U-937 [10]) [%],"viability at 24 h, 20 µM [11] [%]",inhibition at 10 µM (U-937 [13]) [%],Activity [15],inhibition [16] [%],"viability at 24 h, 10 µM [18] [%]",inhibition [20] [%],"viability at 24 h, 40 µM [22] [%]",inhibition [24] [%],inhibition [25] [%],other results
CCCCCc1c2c(cc(O)c1C(=O)O)OC(=O)c1c(cc(OC)cc1C(=O)CCCC)O2 [LOBARIC ACID],100,90,89,100,121,1,Active,42,118,99,73,78,29,inhibition (U-937 [1]): inactive; inhibition (U-937 [2]): Dose-dependent effect; inhibition (U-937 [5]): Dose-dependent effect; inhibition [7]: Dose-dependent effect; inhibition (U-937 [8]): inactive; inhibition (U-937 [9]): Dose-dependent effect; inhibition (U-937 [12]): Dose-dependent effect; inhibition (U-937 [14]): Dose-dependent effect; inhibition [17]: Dose-dependent effect; inhibition (U-937 [19]): Active; inhibition [21]: Dose-dependent effect; inhibition (U-937 [23]): Active
CCCCCc1cc(O)cc(O)c1Oc1cc(OC)cc(C(=O)CCCC)c1C(=O)OC,55,66,0,0,105,0,Active,39,119,52,85,52,23,
CCCCCc1cc(O)cc(O)c1Oc1cc(OC)cc2c1C(=O)OC2(O)CCCC (configuration not stated),7,114,0,0,124,0,Active,29,118,36,122,48,26,
CCCCCc1c(Oc2cc3c(cc2OC)C(CCCC)(OC)OC3=O)c(O)cc(O)c1C(=O)O (configuration not stated),100,52,0,3,131,0,,39,126,84,121,63,27,
COC(=O)c1c(C)cc(O)c(C=O)c1O [METHYL HAEMATOMMATE],80,82,3,41,102,0,,24,119,67,102,38,17,inhibition (U-937 [26]): Dose-dependent effect
COC(=O)c1c(C)cc(O)c(C)c1O [ATRARIC ACID],0,125,0,0,118,0,inactive,19,112,25,116,36,27,
CCCCCc1cc(O)cc(O)c1Oc1cc2c(cc1OC)C(CCCC)(OC)OC2=O (configuration not stated),100,24,0,0,96,0,,15,116,34,87,29,12,
CN(CCOc1ccc(CC2SC(=O)NC2=O)cc1)c1ccccn1 (configuration not stated),,,,,,,Active,,,,,,,
